Test results published in patent publication US20190076417A1, “COMPOSITIONS AND METHODS FOR TREATING OR PREVENTING ATRIAL FIBRILLATION” (Northwestern University, priority 2010, published 2019).

Tests used:
[1] = tested on: M2 versus M3 muscarinic receptor subtype; conditions: cited from earlier work
[2] = tested on: M2 versus M1 muscarinic receptor subtype; conditions: cited from earlier work
[3] = tested on: canine model, vagal stimulation; test: Canine arrhythmia model: ERP shortening and AF induced by vagal stimulation; type: in vivo; conditions: 20 microgram/kg single iv, 10-15 minutes after administration
Description: Canine Arrhythmia Model. […] Bioorg. Med. Chem. 2007, 15, 2312-2321), was evaluated for its ability to decrease effective refractory period and atrial fibrillation induced by vagal stimulation. Open chest electrophysiological mapping was performed in a canine model as previously described (Arora, R. et al. Am. J. Physiol. Heart Circ. Physiol. 2008, 294, […]-[…]). […] At baseline, effective refractory periods (ERPs) were obtained at multiple sites on each plaque in the absence and presence of vagal stimulation (VS). AF inducibility was also assessed under each of these conditions i.e. with and without VS. After baseline measurements had been made, methoctramine tetrahydrochloride hydrate (20 microgram/kg), dissolved in normal saline, was administered via a single iv injection. 10-15 minutes after methoctramine administration, ERPs and AF inducibility were reassessed in the absence and presence of VS.

[4] = tested on: canines subjected to heart failure (HF); test: Vagal stimulation induced ERP shortening in canine heart failure model (rapid ventricular pacing); type: in vivo; conditions: left atrium, in presence of AChE inhibitor, without it 10±4
Description: Effective Refractory Periods. Effective refractory periods (ERPs) were obtained from 5 distributed sites from the PV, 6 sites from the PLA, and 4 sites from the LAA during each autonomic intervention. For each ERP, the pacing protocol consisted of a drive train (S1) of eight beats with a cycle length of 400 ms followed by an extrastimulus (S2). The S2 was decremented by 10 ms until loss of capture. […] Pacing was performed at an output current twice the threshold required for consistent capture of the tissue. The mean ERP was used as the representative ERP for each of the three sites as well as the entire left atrium.
Canines were subjected to heart failure (HF) by rapid ventricular pacing (240/min for 3 weeks). Vagal stimulation induced ERP shortening (VS-ΔERP)(ms) was assessed in the test canines as well as controls at multiple sites in the LA. VS-ΔERP was reassessed in the presence of an acetylcholineesterase (AChE) inhibitor (physostigmine). Explanted LA were subjected to 1) ELISA for acetylcholinesterase (AChE) activity, 2) AChE immunostaining and 3) radioactive M2 receptor binding assay.

Structure (SMILES) | selectivity for M2 versus M3 [1] | selectivity for M2 versus M1 [2] | Vagal induced AF [3] | Vagal induced ERP shortening ([3]; baseline 40 ms, p<0.01) | Vagal stimulation induced ERP shortening (VS-ΔERP) [4]
CC(C)N(CC[C@H](c1ccccc1)c1cc(CO)ccc1O)C(C)C | 2 fold |  |  |  | 
Cc1cccc(C(=O)N2CCC(N3CCC(Cc4ccc(S(=O)(=O)c5cccc(Cl)c5)cc4)CC3)CC2)c1N [Sch 211803] | 786 fold | 734 fold |  |  | 
COc1ccncc1CN1CCC(N(CCCCCCCN2CC[C@@H](C(C(N)=O)(c3ccccc3)c3ccccc3)C2)C(C)C)CC1 [TD-6301] | 36 fold | 31 fold |  |  | 
COc1ccccc1CNCCCCCCNCCCCCCCCNCCCCCCNCc1ccccc1OC [methoctramine] | 219 fold | 35 fold | markedly decreased | 10 ms | 
CNC(=O)Oc1ccc2c(c1)[C@]1(C)CCN(C)[C@@H]1N2C [physostigmine] |  |  |  |  | 28 ± 4 ms
Cc1ccc(O)c([C@H](CCN(C(C)C)C(C)C)c2ccccc2)c1 [tolterodine] | 1.7 fold |  |  |  | 
